According to patent US6471958B2, “Non-contracting tissue equivalent” (University of North Texas Health Science Center, priority 1998, dated 2002):
Read-outs that look alike come from different tables or passages of the source.

How the values were obtained:
[1] = system: normal human dermal fibroblasts
Protocol: Collagen production by near confluent monolayer of dermal fibroblasts was determined by measuring the incorporation of tritiated proline [3H-proline] into bacterial collagenase-sensitive protein [Postlethwaite et al., Proc. Nat. Acad. Sci. (USA) 75:871-875 (1978)] using an extensively modified method of Peterkofsky and Diegelmann, Developmental Biology 28:443-453 (1972). The wells of a six well TC plate (Falcon 3008) were seeded with 5×10^5 fibroblasts and were cultured in DMEM containing 5% FBS for 72 hr at 37° C. (humidified 5% CO2 incubator). The medium was then replaced with serum free DMEM lacking in nonessential amino acids (500 ml), and containing 5 μC L-proline[2,3-3H] (20 Ci/mM, NEN, Boston, Mass.), and the hyperbaric treatments initiated. After 48 and 120 hours, two aliquots (200 ml) of culture supernatant were removed from each well. One aliquot was used to quantitate total protein production as follows: supernatant (200 ml) was added to 0.2 M Tris/0.3 M CaCl2 buffer (pH 7.5, 70 ml), FBS (25 ml),N-ethylmaleimide (NEM, 30 ml), and a 0.75% solution of tannic acid (TA) in 50% trichloroacetic acid 9TCA) (75 ml). […] The filters, placed in scintillation vials containing 5 ml Aquasol (New England Nuclear), were chilled for 4 hr, and counted in a liquid scintillation counter.
The second aliquot of was used to quantitate the noncollagen protein as follows: supernatant (200 ml) was added to 0.2 M Tris/0.3 M CaCl2 buffer (pH 7.5, 50 ml), NEM (30 ml) and bacterial collagenase (20 ml) (Worthington Biochemical Corp., Freehold, N.J.), purified just before use by gel filtration on Sephadex G-200 to remove proteinases. […] The precipitate was collected on glass fiber filters, and the radioactivity was measured by scintillation counting.
De novo synthesized collagen by each fibroblast culture was determined by substracting the noncollagen protein from the total proteins synthesized. Samples were assaved in quadruplicate or triplicate and the data are expressed as mean epm (+SEM) and/or percent of collagen produced relative to control cultures. […]

[2] = system: normal human skin fibroblasts
Protocol: Dermal fibroblasts were obtained as outgrowths from explanted dermal tissue, after incubation at 37° C. 5% CO2 97% humidity) in DMEM containing 10% FBS. The cells were harvested with 0.05% trypsin, 0.02% EDTA, and passaged in their respective media or used for construction of dermal and skin equivalents. For experimental treatments the cells were plated into 25 cm tissue culture flasks (T-25), 6 well tissue culture (TC) plates (9.6 cm^2/well), or 4 well TC plates (2 cm^2/well).
(§2) The cells, DEs, or tissue equivalent products, contained in TC plates, were transferred into the treatment chamber, the lids were removed, and the TC plates covered with sterile gauze. […] The treatment pressure was maintained for 90 minutes. At the conclusion, decompression was carried out slowly over a five-minute period, and the treated cultures returned to the CO2 incubator. The treatments were repeated for 2, 5, or 10 consecutive days, and a normal medium change schedule was maintained.
(§3) The cells and equivalents were incubated in 1 ml of neutral red solution (1 mg/ml in appropriate media) for 4 hours at 37° C. The effects on the cells (fibroblasts/keratinocytes) were evaluated microscopically and photographically recorded. The entry of neutral red into the cells signified that they were viable.

[3] = system: Fibroblasts in Dermal Eq. on Grids; conditions: 90 min/day for 10 days
Protocol: (§4) Dermal equivalents were constructed at 4° C. by mixing 8 parts collagen (Type I acid solubilized, ICN Cellagen®; 3 mg/ml), 1 part of 10×Ham's F-12 medium, 1 part buffer (200 mM HEPES, 25 mM Na2CO3 and 50 mMN NaOH) and inoculating with dermal fibroblasts (1×10^5 cells/ml at 4° C.). For experimental treatments DE were cast in 4 or 12 well tissue culture plates and were maintained at 37° C. in Ham's F-12 Medium containing 5% FBS. Fibroblasts regained their normal morphology within 48 hours, after which DE were maintained in modified Ham's F-12 Medium, changing the media every 48 hours.
as §2, §3

HUSE Product = conditions: for OUTCOME (neutral red viability): HUSE Product, 90 min/day for 10 days
Protocol: Dermal equivalents, cast in 12 well tissue culture plates, were coated with collagen VII (Collaborative Research; 12 mg collagen/cm^2). Early passage keratinocytes (1.8×10^5cells/cm^2), suspended in KGM (2 mls) were then plated onto DE. The medium was changed after 24 hours, and thereafter at 48 hour intervals. Once a confluent monolayer was formed, the DE were transferred to a wire mesh grids, elevated to the air-liquid interface, and the media was changed to modified KGM containing 1.8 mM CaCl2; once lifted (“lift date” was “Day 0”) the system was considered to be a “developing HUSE product”. The “epidermis” remained at the air-liquid interface and differentiated for the duration of the experiment, the media being changed every 3 days. The HUSE product was considered mature after 14 days of differentiation.
as §2, §3

[4] = system: normal human keratinocytes; conditions: for OUTCOME (neutral red viability): Keratinocytes, Continuous 12 hrs or 90 min/day for 10 days
Protocol: Human skin pieces (5 cm squares) were incubated at 4° C. in a solution of 20U/ml dispase (Collaborative Research; 5 mg collagen/cm2) in KGM (Keratinocyte Growth Medium, Clonetics Corp.), for 48 hours. The epidermis was separated from the dermis and dispersed in a solution containing 0.025% trypsin and 0.02% EDTA, by incubation at 37° C. and vigorous pipetting, to produce a single cell suspension. The resulting keratinocytes were then plated into tissue culture flasks coated with collagen VII, and cultured in KGM, a serum free defined medium at 37° C. (5% CO2, 97% humidity). […] The cells were harvested with 0.05% trypsin, 0.02% EDTA, and passaged in their respective media or used for construction of dermal and skin equivalents. For experimental treatments the cells were plated into 25 cm tissue culture flasks (T-25), 6 well tissue culture (TC) plates (9.6 cm^2/well), or 4 well TC plates (2 cm^2/well).
as §2, §3

[5] = system: Fibroblasts in Dermal Eq. Submerged; conditions: 90 min/day for 10 days
Protocol: as §4, §2, §3

[6] = system: normal human dermal fibroblasts monolayers; conditions: for cell proliferation (cell numbers): 90 min./day for ten days
Protocol: (§1) The cells, DEs, or tissue equivalent products, contained in TC plates, were transferred into the treatment chamber, the lids were removed, and the TC plates covered with sterile gauze. The treatment chamber was sealed, the oxygen (100%) was blown through slowly to expel all the air (2 min.), and the chamber brought up to the appropriate pressure over a period of five minutes. The treatment pressure was maintained for 90 minutes. At the conclusion, decompression was carried out slowly over a five-minute period, and the treated cultures returned to the CO2 incubator. The treatments were repeated for 2, 5, or 10 consecutive days, and a normal medium change schedule was maintained.

[7] = system: normal human keratinocyte monolayers; conditions: periodic HBO treatment
Protocol: as §1

[8] = system: human skin equivalent product; conditions: 90 minutes/day for 10 days
Protocol: as §1

[9] = 90 minutes, DMEM, KBM
Protocol: A method similar to that described by Rafi et al., Am. J. Med. Genetics 61:299-303 […] was used to measure the partial pressure of oxygen (pO2) dissolved in the culture medium bathing the cells. To each well of a multiwell tissue culture (TC) plate was added the appropriate culture medium to a depth of 2 mm. The TC plates were then placed in the treatment chamber, the chamber was flushed out with oxygen for five minutes and then pressurized over an additional five minute period. The pressure was maintained for 90 minutes after which time period the treatment chamber was decompressed over a period of five minutes. The TC plates were then removed from the chamber and the pO2 measurement taken within two minutes using a polarographic oxygen electrode (Diamond General Development Corporation, Ann Arbor, Mich.). Dissolution of oxygen at four different pressures was measured in three different media.

For `O=O` [100% O2, oxygen], the collagen synthesis ([1]; 1 atmosphere, after two days of treatment) was “elevated”, the “levels of collagen synthesis” value ([1]; five days vs two days of treatment, all pressure levels) was “higher after five days of treatment than after two days” and the collagen synthesis ([1]; with increased HBO) was “inhibition of collagen synthesis”. The “OUTCOME (neutral red viability)” value ([2]; 3 hrs/day for 5 days, 320 mm Hg) was “Non-Toxic”, the “OUTCOME (neutral red viability)” value ([2]; 3 hrs/day for 5 days, 480 mm Hg) was “Non-Toxic” and the “OUTCOME (neutral red viability)” value ([2]; 3 hrs/day for 5 days, 760 mm Hg) was “Non-Toxic”. The “OUTCOME (neutral red viability)” value ([2]; Continuous 12 hrs, 760 mm Hg) was “Non-Toxic”, the “OUTCOME (neutral red viability)” value ([2]; Continuous 12 hrs, 1520 mm Hg) was “Some Toxicity” and the “OUTCOME (neutral red viability)” value ([2]; Continuous 12 hrs, 1520 mm Hg, listed as 100% oxygen) was “some toxicity”. For the same compound, the “OUTCOME (neutral red viability)” value ([2]; Continuous 12 hrs, 2280 mm Hg) was “Some Toxicity”, the “OUTCOME (neutral red viability)” value ([2]; Continuous 12 hrs, 2280 mm Hg, listed as 100% oxygen) was “some toxicity” and the “OUTCOME (neutral red viability)” value ([3]; 760 mm Hg) was “Non-Toxic”. For the same compound, the “OUTCOME (neutral red viability)” value ([3]; 1520 mm Hg) was “Some Toxicity”, the “OUTCOME (neutral red viability)” value ([3]; 2280 mm Hg) was “Some Toxicity” and the “OUTCOME (neutral red viability)” value (HUSE Product; 760 mm Hg) was “Non-Toxic”. The “OUTCOME (neutral red viability)” value (HUSE Product; 1520 mm Hg) was “Non-Toxic”, the “OUTCOME (neutral red viability)” value (HUSE Product; 2280 mm Hg) was “Non-Toxic” and the “adverse effect on developing HUSE products” value (HUSE Product; up to 3 atmospheres) was “not adversely affected”. The “OUTCOME (neutral red viability)” value ([4]; 760 mm Hg) was “Non-Toxic”, the “OUTCOME (neutral red viability)” value ([4]; 1520 mm Hg) was “Non-Toxic” and the “OUTCOME (neutral red viability)” value ([4]; 2280 mm Hg) was “Non-Toxic”. The toxicity ([4]; keratinocyte monolayer cultures, any pressure) was “No toxicity”, the “OUTCOME (neutral red viability)” value ([5]; 760 mm Hg) was “Non-Toxic” and the “OUTCOME (neutral red viability)” value ([5]; 1520 mm Hg) was “Non-Toxic”. For the same compound, the “OUTCOME (neutral red viability)” value ([5]; 2280 mm Hg) was “Non-Toxic”, the “cell proliferation (cell numbers)” value ([6]; 1 atm. Donor) was “Stimulation of cell proliferation” and the “cell proliferation (cell numbers)” value ([6]; 2.5 atm. Donor) was “Stimulation of cell proliferation”. For the same compound, the “cell proliferation (cell numbers)” value ([6]; 3 atm, donor) was “consistently non-stimulating and perhaps marginally anti-mitotic”, the “effect on fibroblast mitosis” value ([6]; oxygen pressures above about three atmospheres) was “antimitotic” and the cell number ([7]; 1 atm.) was “consistently indistinguishable from the controls”. For the same compound, the cell number ([7]; 2 atm.) was “not as mitotic as the latter”, the cell number ([7]; 2.5 atm.) was “not as mitotic as the latter” and the cell number ([7]; 3 atm.) was “a constant number of cells, well below the numbers obtained in other treatments”. The “cornification of the epidermal layer” value [8] was “particularly stimulated”, the epidermal thickness ([8]; 1 and 2 atm of 100% oxygen, vs untreated control) was “progressive increase in epidermal thickness” and the “MEASURED pO2 (Mean of three readings)” value ([9]; applied O2 pressure 1 atm. - 760 mm Hg, KGM) was 316 mm Hg. For the same compound, the “MEASURED pO2 (Mean of three readings)” value ([9]; applied O2 pressure 2 atm. - 1520 mm Hg, KGM) was 800 mm Hg, the “MEASURED pO2 (Mean of three readings)” value ([9]; applied O2 pressure 2.5 atm. - 1900 mm Hg, KGH) was 941 mm Hg and the “MEASURED pO2 (Mean of three readings)” value ([9]; applied O2 pressure 3 atm. - 2280 mm Hg, KGM) was 1215 mm Hg.
